# Results taken from patent US12617777B2, “GPR84 antagonists and uses thereof” (Liminal BioSciences Limited, priority 2021, dated 2026).
# Target: T1, human GPR84 receptor (Homo sapiens, UniProt Q9NQS5)
# T1 construct: host or cells: HEK293, transient transfection
# Assay: Gαi biosensor BRET assay in HEK293 cells (antagonism of ZQ-16)
# Type: cell-based
# Conditions: for inhibition at 2 µM: HEK293, single concentration 2 μM (designated A); for inhibition at 10 µM: HEK293, single concentration 10 μM (designated F); for IC50: HEK293 cells, antagonism of 200 nmol/L ZQ-16; for inhibition at 25 µM: HEK293, single concentration 25 μM (designated I)
# Method in brief: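 Antagonist mode: test compound 5 min at 37° C, followed by ZQ-16 agonist (200 nmol/L, 5 min, room temperature), in HEK293 cells transfected with GPR84 plus Rluc8-tagged Gαi2, GFP10-Gγ2 and Gβ1. Readout as GFP10/Rluc8 emission ratio after 5 μmol/L coelenterazine 400A, net of Rluc8-only and vehicle signal.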
# T1 sequence (Q9NQS5 whole entry): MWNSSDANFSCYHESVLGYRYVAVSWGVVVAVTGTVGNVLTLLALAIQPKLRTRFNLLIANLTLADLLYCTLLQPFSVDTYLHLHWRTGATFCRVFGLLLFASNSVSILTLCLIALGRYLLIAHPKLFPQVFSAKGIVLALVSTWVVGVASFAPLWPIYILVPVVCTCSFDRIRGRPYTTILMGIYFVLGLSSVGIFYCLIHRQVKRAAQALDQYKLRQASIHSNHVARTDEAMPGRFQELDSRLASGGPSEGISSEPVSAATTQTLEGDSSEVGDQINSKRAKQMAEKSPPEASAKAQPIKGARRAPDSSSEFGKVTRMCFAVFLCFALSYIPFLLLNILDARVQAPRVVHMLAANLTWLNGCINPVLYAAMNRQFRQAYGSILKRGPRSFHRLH
SMILES,inhibition at 10 µM,IC50,other results
CN(C)c1cc(N2CCOCC2)ccc1-c1cn(CC2OCC(C)(C)CO2)nn1 [Compound I-863],–,–,inhibition at 2 µM: > 75%
C=C(c1cncc(C#CC2CC2)c1)c1cn(CC2CCCCO2)nn1 (stereo not shown) [Compound I-427],25 to 50%,> 3000 nM,–
CC(C)(C)C#Cc1ccc(-c2cn(CC3CCCCO3)nn2)cc1 (stereo not shown) [Compound I-58],–,–,inhibition at 25 µM: ≤ 25%
COC(c1cn(CC2OCC(C)(C)CO2)nn1)c1cc(C#CC2CC2)ccc1C (stereo not shown) [Compound I-592],50 to 75%,–,–
Cc1cc(C(=O)NCC2CC2)ccc1-c1cn(CC2CCCCO2)nn1 (stereo not shown) [Compound I-357],50 to 75%,–,–
C(#CC1CC1)c1ccc(-c2cn(CC3OCCCO3)nn2)cc1 [Compound I-102],25 to 50%,–,–
Cc1ccccc1-c1cn(CC#Cc2cnc(-c3cn(CC4CCCCO4)nn3)c(C)c2)nn1 (stereo not shown) [Compound I-734],> 75%,300 to 1000 nM,–
c1ccc(COc2ccc(-c3cn(CC4CCCCO4)nn3)cc2)cc1 (stereo not shown) [Compound I-53],–,–,inhibition at 25 µM: ≤ 25%
CNCc1cc(C#CC2CC2)ccc1-c1cn(CC2CCCCO2)nn1 (stereo not shown) [Compound I-355],50 to 75%,–,–
CC(C)Oc1cc(C#CC2CC(F)(F)C2)cnc1-c1cn(CC2CCCCO2)nn1 (stereo not shown) [Compound I-649],–,1000 to 3000 nM,inhibition at 2 µM: > 75%
CC1(C)CN(CC#Cc2cnc(-c3cn(CC4OCC5(CC5)CO4)nn3)c(OC3CC3)c2)C1 [Compound I-794],–,≤ 300 nM,inhibition at 2 µM: > 75%
Cc1cc(OC2CN3CCC2CC3)ccc1-c1cn(CC2CCCCO2)nn1 (stereo not shown) [Compound I-465],≤ 25%,–,–
COC(c1cn(CC2CCCCO2)nn1)c1cc(N2CC(C)(C)C2)ccc1C (stereo not shown) [Compound I-593],≤ 25%,–,–
CCc1cc(C#CC2CC2)cnc1-c1cn(CC2CCOCC2)nn1 [Compound I-274],50 to 75%,–,–
Cc1ccc(C#CC2CC2)cc1Cc1nnnn1CC1CCCCO1 (stereo not shown) [Compound I-419],25 to 50%,–,–
"Cc1ccc(-c2ccc(C3COC(=O)N3CC3CCCCO3)c(C)c2)cn1 (stereo not shown) [Compound I-407, 4-(2-methyl-4-(6-methylpyridin-3-yl)phenyl)-3-((tetrahydro-2H-pyran-2-yl)methyl)oxazolidin-2-one]",≤ 25%,–,–
Cc1cc(N2CCN([C@H](C)c3ccccn3)CC2)ccc1-c1cn(C[C@H]2CCCCO2)nn1 [Compound I-611],25 to 50%,–,–
Cc1cc(N2CC(C)(C)C2)ccc1-c1cn(C[C@H]2CCCCO2)nn1 [Compound I-253],–,≤ 300 nM,"inhibition at 3.3 µM (HEK293, single concentration 3.3 μM (designated C)): > 75%"
Cc1cc(C2CCN(Cc3ccccn3)CC2)cnc1Cc1cn(CC2CCCCO2)nn1 (stereo not shown) [Compound I-504],≤ 25%,–,–
CC1(C)CN(CC#Cc2cnc(-c3cn(C[C@H]4CCCCO4)nn3)c(CC(F)(F)F)c2)C1 [Compound I-818],> 75%,–,–
Cc1ccc(C#CC2CC2)cc1Oc1cn(CC2OCC(C)(C)CO2)nn1 [Compound I-773],–,300 to 1000 nM,–
Cc1cc(C#CC2CC2)cnc1-c1cn(CC2OCC(F)(F)CO2)nn1 [Compound I-713],50 to 75%,300 to 1000 nM,–
CC1(C)COC(Cn2cnc(-c3ncc(C#CC4CC4)cc3OC3CC3)c2)OC1 [Compound I-831],–,≤ 300 nM,inhibition at 2 µM: > 75%
CN(C)c1cc(N2CC(C)(CO)C2)c(F)cc1-c1cn(CC2OCC(C)(C)CO2)nn1 [Compound I-711],–,≤ 300 nM,inhibition at 2 µM: > 75%

SMILES,inhibition at 10 µM,IC50,other results
CC(C)c1cc(N2CC(C)(C)C2)cnc1-c1cn(CC2CC(C)(C)O2)nn1 (stereo not shown) [Compound I-600],> 75%,1000 to 3000 nM,–
Cc1cc(N2CC(N(C)C)C2)ccc1-c1cn(CC2CCCCO2)nn1 (stereo not shown) [Compound I-114],≤ 25%,–,–
CN(C)c1cc(N2CC3(COC3)C2)ccc1-c1cn(CC2OCC(C)(C)CO2)nn1 [Compound I-756],> 75%,300 to 1000 nM,–
CC1(C)CN(CC#Cc2cnc(-c3cn(CC4OCC5(CCC5)O4)nn3)c(OC3CC3)c2)C1 (stereo not shown) [Compound I-764],–,300 to 1000 nM,–
Cc1nn(CC2CCCCO2)cc1-c1ccc(C#CC2CC2)cc1 (stereo not shown) [Compound I-319],–,–,inhibition at 25 µM: ≤ 25%
CC1(C)COC(Cn2cc(-c3ccc(N4CC(C)(CO)C4)cc3OC3CC3)nn2)OC1 [Compound I-767],–,300 to 1000 nM,–
"Cc1cc(C#CCNC(=O)C(F)(F)F)cnc1-c1cn(CC2CCCCO2)nn1 (stereo not shown) [Compound I-843, 2,2,2-trifluoro-N-(3-(5-methyl-6-(1-((tetrahydro-2H-pyran-2-yl)methyl)-1H-1,2,3-triazol-4-yl)pyridin-3-yl)prop-2-yn-1-yl)acetamide]",> 75%,–,–
Cc1cc(N2CC(F)C2)ccc1-c1cn(CC2CCCCO2)nn1 (stereo not shown) [Compound I-529],≤ 25%,–,–
Cc1cc(N2CC(C)(N(C)C)C2)ccc1-c1cn(CC2CCCCO2)nn1 (stereo not shown) [Compound I-470],≤ 25%,–,–
Cc1cc(C#CC2CC2)ccc1Cc1cn(CC2CCCCO2)nn1 (stereo not shown) [Compound I-300],25 to 50%,–,–
Cc1cc(N2CC(C)(C#N)C2)ccc1-c1cn(CC2CCCCO2)nn1 (stereo not shown) [Compound I-495],25 to 50%,–,–
Cc1cc(C#CCn2cc(-c3ccc(N(C)C)cc3)nn2)cnc1-c1cn(CC2OCC(C)(C)CO2)nn1 [Compound I-668],–,≤ 300 nM,inhibition at 2 µM: > 75%
FC(F)(F)COc1ccc(-c2cn(CC3CCCCO3)nn2)cc1 (stereo not shown) [Compound I-51],–,–,inhibition at 25 µM: ≤ 25%
CN(C)c1cc(N2CC(C)(CO)C2)c(F)cc1-c1cn(CC2CC(C)(C)CO2)nn1 (stereo not shown) [Compound I-710],–,≤ 300 nM,inhibition at 2 µM: > 75%
CCc1ccc(C#CC2CC2)cc1-n1nc(CC2CCCCO2)oc1=O (stereo not shown) [Compound I-20],> 75%,–,–
Cc1cc(C2CC2)cnc1-c1cn(CC2OCC(C)(C)CO2)nn1 [Compound I-871],25 to 50%,–,–
CCOC(c1cn(CC2CCCCO2)nn1)c1cc(C#CC2CC2)ccc1C (stereo not shown) [Compound I-594],> 75%,≤ 300 nM,–
Cc1cc(N2CC3(CCN(C)CC3)C2)ccc1-c1cn(CC2CCCCO2)nn1 (stereo not shown) [Compound I-155],≤ 25%,–,–
Cc1cc(C#CC2CC2)sc1-c1cn(CC2CCCCO2)nn1 (stereo not shown) [Compound I-116],25 to 50%,–,–
Cc1cc(C#CCn2cc(C3CC3)nn2)ccc1-c1cn(CC2CCCCO2)nn1 (stereo not shown) [Compound I-645],> 75%,–,–
Cc1cc(N2CCN(c3cccnc3)CC2)ccc1-c1cn(CC2CCCCO2)nn1 (stereo not shown) [Compound I-545],≤ 25%,–,–
Cc1cc(N2CCN(Cc3ccccn3)CC2)ccc1-c1cn(C[C@H]2CCCCO2)cn1 [Compound I-671],> 75%,1000 to 3000 nM,–
Cc1cc(N2CC3(CCNC3)C2)ccc1-c1cn(CC2CCCCO2)nn1 (stereo not shown) [Compound I-167],≤ 25%,–,–
Cc1cc(N2CCN(C)CC2)ccc1-c1cn(C[C@H]2CCCCO2)nn1 [Compound I-111],≤ 25%,–,–

SMILES,inhibition at 10 µM,IC50,other results
Cc1cc(C#CCN2CC(C)(C)C2)cnc1-c1nnnn1CC1OCC(C)(C)CO1 [Compound I-836],50 to 75%,–,–
Cc1cc(N2CCN(C(C)c3ccccn3)CC2)ccc1-c1cn(CC2OCC(C)(C)CO2)nn1 (stereo not shown) [Compound I-691],> 75%,300 to 1000 nM,–
Cc1cc(C#CC2CC2)cnc1-c1cn(CC2CCC(C)(C)O2)nn1 (stereo not shown) [Compound I-252],25 to 50%,–,–
COC(=O)N1CCOCC1Cn1cc(-c2ccc(C#CC3CC3)cc2C)nn1 (stereo not shown) [Compound I-106],≤ 25%,–,–
CCOc1cc(C#CCOC)cnc1-c1cn(CC2OCC(C)(C)CO2)nn1 [Compound I-834],≤ 25%,≤ 300 nM,–
Cc1cc(C#CC(C)O)ccc1-c1cn(CC2CCCCO2)nn1 (stereo not shown) [Compound I-78],–,1000 to 3000 nM,–
CS(=O)(=O)c1cc(C#CC2CC2)ccc1-c1cn(CC2CCCCO2)nn1 (stereo not shown) [Compound I-219],≤ 25%,–,–
CNC1CCCN(c2ccc(-c3cn(CC4CCCCO4)nn3)c(C)c2)C1 (stereo not shown) [Compound I-170],≤ 25%,–,–
COC(=O)c1cc(C#CC2CC2)ccc1-c1cn(CC2CCCCO2)nn1 (stereo not shown) [Compound I-214],≤ 25%,–,–
Cc1cc(C#CC2CC2)cnc1-c1cn(CC2CCCCO2)nn1 (stereo not shown) [Compound I-866],–,1000 to 3000 nM,–
CN(c1cn(CC2OCC(C)(C)CO2)nn1)c1cc(C#N)ccc1Cl [Compound I-803],> 75%,–,–
Cc1nc(-c2ccc(C#CC3CC3)cc2)cn1CC1CCCCO1 (stereo not shown) [Compound I-336],–,–,inhibition at 25 µM: ≤ 25%
Cc1cc(OCC(F)(F)F)cnc1-c1cn(CC2OCC(C)(C)CO2)nn1 [Compound I-638],≤ 25%,–,–
Cc1cc(C#CC2CC2)ccc1-c1cn(CC2CNCCO2)nn1 (stereo not shown) [Compound I-180],≤ 25%,–,–
CC(c1cc(C#CC2CC2)ccn1)c1cn(CC2CCCCO2)nn1 (stereo not shown) [Compound I-633],50 to 75%,–,–
Cc1ccc(OCc2ccccn2)cc1Cc1cn(CC2CCCCO2)nn1 (stereo not shown) [Compound I-444],≤ 25%,–,–
Cc1cc(N2CC3(CC3)C2)cnc1-c1cn(CC2CCCCO2)nn1 (stereo not shown) [Compound I-571],≤ 25%,–,–
Cc1cc(N2CC(N(C)S(C)(=O)=O)C2)ccc1-c1cn(CC2CCCCO2)nn1 (stereo not shown) [Compound I-487],≤ 25%,–,–
Cc1cc(C#CC2CC2)ccc1-n1nc(OC[C@H]2COCCO2)oc1=O [Compound I-13],25 to 50%,–,–
COc1cc(N2CC(C)(C)C2)ccc1-c1cn(CC2CCCCO2)nn1 (stereo not shown) [Compound I-279],> 75%,–,–
CCN(CC)c1cc(N2CC(C)(CO)C2)ccc1-c1cn(CC2OCC3(CC3)CO2)nn1 [Compound I-800],50 to 75%,300 to 1000 nM,–
CC1(C)COC(Cn2cc(-c3ncc(C#CC4CC4)cc3Cl)nn2)OC1 [Compound I-708],> 75%,≤ 300 nM,–
CN(C)c1cc(N2CC(CO)(CO)C2)ccc1-c1cn(CC2OCC(C)(C)CO2)nn1 [Compound I-667],> 75%,300 to 1000 nM,–
CC(C)c1cc(N2CC(C)(C)C2)cnc1-c1cn(CC2CCCCO2)nn1 (stereo not shown) [Compound I-461],> 75%,–,–
